Measured values published in patent US8785499B2 (priority 2009, dated 2014).
Read-outs that look alike come from different tables or passages of the source.

What was measured:
ecNadD = ecNadD (Escherichia coli (strain K12), UniProt P0A752); experiment: biochemical; type: biochemical; settings: for inhibition at 100 µM: read-out: INHIBITION (%) E. coli
baNadD = baNadD (Bacillus anthracis, UniProt C3L5T6); experiment: biochemical; type: biochemical; settings: for inhibition at 50 µM: read-out: INHIBITION (%) B. anthracis
Chain of baNadD (C3L5T6 whole entry, looked up): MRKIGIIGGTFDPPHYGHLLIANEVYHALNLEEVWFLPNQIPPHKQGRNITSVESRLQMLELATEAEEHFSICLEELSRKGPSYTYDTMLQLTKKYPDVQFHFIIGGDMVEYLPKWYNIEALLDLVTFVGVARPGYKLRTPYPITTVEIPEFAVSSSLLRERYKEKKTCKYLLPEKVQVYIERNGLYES

Compound: O=C1Nc2ccccc2/C1=C/NCCc1ccccc1 [15_32]
- inhibition at 100 µM (ecNadD): 7%
- inhibition at 50 µM (baNadD): 4%

Compound: Nc1nnc(SCC(=O)Nc2nccs2)n1-c1ccccc1 [compound 058]
- […]. coli (ecNadD): 15%
- […]. anthracis (baNadD): 0%

Compound: Nc1cc(=O)[nH]c(SCC(=O)Nc2ccc(S(N)(=O)=O)cc2)n1 [compound 164]
- […]. coli (ecNadD): 4%
- […]. anthracis (baNadD): 32%

Compound: O=C(O)CCC(=O)Nc1ccc(-c2nnc(-c3ccco3)o2)cc1 [compound 239]
- […]. coli (ecNadD): 0%
- […]. anthracis (baNadD): 11%

Compound: CCS(=O)(=O)n1nc(-c2ccc(OC)cc2)nc1N [compound 149]
- […]. coli (ecNadD): 5%
- […]. anthracis (baNadD): 0%

Compound: Cc1ccc(OCC(=O)Nc2nnc[nH]2)c(Br)c1 [compound 046]
- […]. coli (ecNadD): 17%
- […]. anthracis (baNadD): 71%

Compound: Brc1cnc2nc(/C=C/c3ccccc3)[nH]c2c1 [compound 006]
- […]. coli (ecNadD): 62%
- […]. anthracis (baNadD): 34%

Compound: NS(=O)(=O)c1ccc(NC(=O)c2cc3cc(Br)ccc3oc2=O)cc1 [compound 050]
- […]. coli (ecNadD): 16%
- […]. anthracis (baNadD): 38%

Compound: COc1ccc(-c2csc(N)n2)cc1[N+](=O)[O-] [compound 138]
- […]. coli (ecNadD): 6%
- […]. anthracis (baNadD): 54%

Compound: Nc1nc(-c2ccc(Cl)c([N+](=O)[O-])c2)n[nH]1 [compound 288]
- […]. coli (ecNadD): 0%
- […]. anthracis (baNadD): 0%

Compound: O=C1C/C(=C/NCCc2ccc(O)cc2)C(=O)N1 [compound 068]
- […]. coli (ecNadD): 13%
- […]. anthracis (baNadD): 10%

Compound: Cc1ccc(SCc2cc(=O)n3ncnc3[nH]2)cc1 [compound 231]
- […]. coli (ecNadD): 0%
- […]. anthracis (baNadD): 0%

Compound: O=C(CSc1nc2ccccc2c(=O)[nH]1)NCc1ccco1 [compound 167]
- […]. coli (ecNadD): 4%
- […]. anthracis (baNadD): 0%

Compound: O=C(NNC(=O)c1ccco1)c1cccc(I)c1 [compound 028]
- […]. coli (ecNadD): 23%
- […]. anthracis (baNadD): 7%

Compound: O=C(NNC(=O)c1ccccc1C(=O)O)c1ccc(Cl)cc1 [compound 195]
- […]. coli (ecNadD): 1%
- […]. anthracis (baNadD): 0%

Compound: COc1ccc(N(CC(=O)O)S(=O)(=O)c2ccc(C)cc2)cc1Cl [compound 192]
- […]. coli (ecNadD): 1%
- […]. anthracis (baNadD): 0%

Compound: COC(=O)c1ccccc1N/C=C1\C(=O)Nc2ccccc21 [15_08]
- inhibition at 100 µM (ecNadD): 14%
- inhibition at 50 µM (baNadD): 0%

Compound: CC(=O)c1cccc(N/C=C2\C(=O)Nc3ccccc32)c1 [15_35]
- inhibition at 100 µM (ecNadD): 4%
- inhibition at 50 µM (baNadD): 19%

Compound: O=[N+]([O-])c1cccc(S(=O)(=O)Nn2cnnc2)c1 [compound 241]
- […]. coli (ecNadD): 0%
- […]. anthracis (baNadD): 59%

Compound: CC(=NNC(=O)COc1ccc(C)cc1)C(=O)O [compound 182]
- […]. coli (ecNadD): 3%
- […]. anthracis (baNadD): 14%

Compound: Cc1cc(S(=O)(=O)Nc2cccc(C(=O)O)c2)ccc1Cl [compound 199]
- […]. coli (ecNadD): 0%
- […]. anthracis (baNadD): 0%

Compound: Cc1ccc(C(=O)N/N=C/c2ccc(O)c(I)c2)cn1 [compound 147]
- […]. coli (ecNadD): 5%
- […]. anthracis (baNadD): 12%

Compound: O=C(CCC(=O)Nc1ccc(Br)cc1)N/N=C/C=C/c1ccccc1 [01_12]
- inhibition at 100 µM (ecNadD): 68%
- IC50 (baNadD; IC50 baNadD): 48 µM
- inhibition at 50 µM (baNadD): 75%

Compound: O=C(O)Cn1cc(Cl)c([N+](=O)[O-])n1 [compound 117]
- […]. coli (ecNadD): 8%
- […]. anthracis (baNadD): 14%

Compound: O=c1cc(O)c2sc(Nc3cccc(Cl)c3)nc2[nH]1 [compound 047]
- […]. coli (ecNadD): 17%
- […]. anthracis (baNadD): 0%

Compound: O=C(O)C(Cc1ccccc1)NS(=O)(=O)c1ccc2c(c1)OCCO2 (centres unmarked) [compound 246]
- […]. coli (ecNadD): 0%
- […]. anthracis (baNadD): 0%

Compound: O=C(Nc1ncccn1)c1sc2ccccc2c1Cl [compound 011]
- […]. coli (ecNadD): 31%
- […]. anthracis (baNadD): 0%

Compound: Cc1ccc(N/C=C2\C(=O)Nc3ccccc32)cc1 [15_29]
- inhibition at 100 µM (ecNadD): 7%
- inhibition at 50 µM (baNadD): 38%

Compound: O=S(=O)(Nc1nc2ccccc2s1)c1ccc(Cl)s1 [compound 284]
- […]. coli (ecNadD): 0%
- […]. anthracis (baNadD): 7%

Compound: c1ccc2[nH]c(SCc3cn4ccsc4n3)nc2c1 [compound 143]
- […]. coli (ecNadD): 6%
- […]. anthracis (baNadD): 2%

Compound: O=C(O)c1ccc(-n2cccn2)cc1 [compound 141]
- […]. coli (ecNadD): 6%
- […]. anthracis (baNadD): 17%

Compound: CC(=O)NC(=S)Nc1ccc(Cl)c(Cl)c1 [compound 244]
- […]. coli (ecNadD): 0%
- […]. anthracis (baNadD): 0%

Compound: Cc1nn(-c2ccc([N+](=O)[O-])cc2)c(Cl)c1S(=O)(=O)O [compound 262]
- […]. coli (ecNadD): 0%
- […]. anthracis (baNadD): 5%

Compound: N=C1NC(=O)C(Cc2ccccc2Cl)S1 (centres unmarked) [compound 198]
- […]. coli (ecNadD): 0%
- […]. anthracis (baNadD): 7%

Compound: Nc1nnc(CCSc2cc(Cl)ccc2Cl)s1 [compound 018]
- […]. coli (ecNadD): 27%
- […]. anthracis (baNadD): 0%

Compound: O=C(CSc1nnc[nH]1)Nc1ccc(I)cc1 [compound 129]
- […]. coli (ecNadD): 7%
- […]. anthracis (baNadD): 0%

Compound: O=C(O)CC(NC(=O)OCc1ccccc1)c1ccccc1 (centres unmarked) [compound 261]
- […]. coli (ecNadD): 0%
- […]. anthracis (baNadD): 24%

Compound: O=C(CCC(=O)Nc1ccccc1Cl)NN=Cc1ccc(C=NNC(=O)CCC(=O)Nc2ccccc2Cl)cc1 [1—02—1, N-(2-Chloro-phenyl)-3-(4-{[3-(2-chloro-phenylcarbamoyl)-propionyl]-hydrazonomethyl}-benzylidene-hydrazinocarbonyl)-propionamide]
- ecNadD inhibition (qualitative) (ecNadD): effective
- IC50 (ecNadD; IC50 ecNadD): 13 ± 2 µM
- baNadD inhibition (qualitative) (baNadD): effective
- improvement in activity compared to precursors 1_13 and 1_15 (baNadD): more than 10 fold

Compound: O=C(O)c1ccccc1C(=O)c1cccs1 [compound 156]
- […]. coli (ecNadD): 5%
- […]. anthracis (baNadD): 22%

Compound: CCOC(=O)c1ccc(N/C=C2\C(=O)Oc3ccccc3C2=O)cc1 [compound 220]
- […]. coli (ecNadD): 0%
- […]. anthracis (baNadD): 0%

Compound: O=C(N/N=C/c1ccc(Br)cc1)c1[nH]ncc1Br [compound 256]
- […]. coli (ecNadD): 0%
- […]. anthracis (baNadD): 0%

Compound: O=C(CNS(=O)(=O)c1ccc(Br)s1)NCCC1=CCCCC1 [compound 289]
- […]. coli (ecNadD): 0%
- […]. anthracis (baNadD): 4%

Compound: O=C(O)CCC(=O)OC/C=C/c1ccccc1 [compound 247]
- […]. coli (ecNadD): 0%
- […]. anthracis (baNadD): 18%

Compound: O=C(CCC(=O)Nc1cccc(Br)c1)N/N=C/c1cccc(Br)c1 [01_10]
- inhibition at 100 µM (ecNadD): 72%
- inhibition at 50 µM (baNadD): 53%

Compound: O=S(=O)(NCCCc1ccccc1)c1cccc2nsnc12 [compound 142]
- […]. coli (ecNadD): 6%
- […]. anthracis (baNadD): 0%

Compound: O=c1[nH]c2ccc(NC(=S)Nc3ccccc3)cc2[nH]1 [compound 083]
- […]. coli (ecNadD): 11%
- […]. anthracis (baNadD): 0%

Compound: CCC(NS(=O)(=O)c1ccc(OC)cc1)C(=O)O (centres unmarked) [compound 212]
- […]. coli (ecNadD): 0%
- […]. anthracis (baNadD): 32%

Compound: Nc1nc(-c2cccc(Br)c2)cs1 [compound 232]
- […]. coli (ecNadD): 0%
- […]. anthracis (baNadD): 12%

Compound: O=C(O)c1ccc(-n2ncc(Cl)c(Cl)c2=O)cc1 [compound 217]
- […]. coli (ecNadD): 0%
- […]. anthracis (baNadD): 0%

Compound: CCc1c(O)nc(SC2CC(=O)N(c3ccccc3)C2=O)nc1O (centres unmarked) [compound 053]
- […]. coli (ecNadD): 16%
- […]. anthracis (baNadD): 0%

Compound: O=C(O)c1ccc([N+](=O)[O-])cc1C(=O)Nc1ccc(Cl)cc1 [compound 016]
- […]. coli (ecNadD): 29%
- […]. anthracis (baNadD): 75%

Compound: Cn1c(=O)n(C)c2cc(S(=O)(=O)NCCC(=O)O)ccc21 [compound 249]
- […]. coli (ecNadD): 0%
- […]. anthracis (baNadD): 1%

Compound: Cc1ccc([N+](=O)[O-])cc1NS(=O)(=O)c1ccc(F)cc1 [compound 264]
- […]. coli (ecNadD): 0%
- […]. anthracis (baNadD): 0%

Compound: Nc1c(C(=O)Nc2ccc(F)c(Cl)c2)sc2nc(-c3ccc(F)cc3)ccc12 [03_13]
- inhibition at 100 µM (ecNadD): 52%
- inhibition at 50 µM (baNadD): 26%

Compound: CC(=O)Nc1ccc(NC(=O)CSc2nccc(O)n2)cc1 [compound 128]
- […]. coli (ecNadD): 7%
- […]. anthracis (baNadD): 0%

Compound: CN1CCN(C(=O)c2ccccc2C(=O)O)CC1 [compound 190]
- […]. coli (ecNadD): 1%
- […]. anthracis (baNadD): 0%

Compound: O=C(CCC(=O)Nc1ccc(Br)cc1)N/N=C/c1cccc(Br)c1 [01_13]
- inhibition at 100 µM (ecNadD): 67%
- IC50 (baNadD; read-out: IC50 baNadD): 170 µM
- inhibition at 50 µM (baNadD): 29%

Compound: O=C(O)c1ccc(Nc2nc(-c3ccc(Cl)cc3)cs2)cc1 [compound 030]
- […]. coli (ecNadD): 22%
- […]. anthracis (baNadD): 28%

Compound: N/C(=N\OCC(=O)Nc1ccc([NH2+][O-])cc1)c1nonc1N [compound 062]
- […]. coli (ecNadD): 14%
- […]. anthracis (baNadD): 0%
